In paper PMC11945486, “TAS1R2/TAS1R3 Single-Nucleotide Polymorphisms Affect Sweet Taste Receptor Activation by Sweeteners: The SWEET Project” (Nutrients, 2025):
No end group written: not given here.

B1: thaumatin (protein)
chain: ATFEIVNRCSYTVWAAASKGDAALDAGGRQLNSGESWTINVEPGTKGGKIWARTDCYFDDSGSGICKTGDCGGLLRCKRFGRPPTTLAEFSLNQYGKDYIDISNIKGFNVPMDFSPTTRGCRGVRCAADIVGQCPAKLKAPGGGCNDACTVFQTSEYCCTTGKCGPTEYSRFFKRLCPDAFSYVLDKPTTVTCPGSSNYRVTFCPTA
modifications: Eight disulfides
notes: sweet-tasting plant protein, E957

Target: T1, human TAS1R2-A574T/TAS1R3-WT (Homo sapiens, UniProt Q7RTX0+Q8TE23, A574T)
T1 construct: expressed in transfected cells; host or cells: HEK293T-Gα16gust44
T1 sequence (Q8TE23 20-839 A574T): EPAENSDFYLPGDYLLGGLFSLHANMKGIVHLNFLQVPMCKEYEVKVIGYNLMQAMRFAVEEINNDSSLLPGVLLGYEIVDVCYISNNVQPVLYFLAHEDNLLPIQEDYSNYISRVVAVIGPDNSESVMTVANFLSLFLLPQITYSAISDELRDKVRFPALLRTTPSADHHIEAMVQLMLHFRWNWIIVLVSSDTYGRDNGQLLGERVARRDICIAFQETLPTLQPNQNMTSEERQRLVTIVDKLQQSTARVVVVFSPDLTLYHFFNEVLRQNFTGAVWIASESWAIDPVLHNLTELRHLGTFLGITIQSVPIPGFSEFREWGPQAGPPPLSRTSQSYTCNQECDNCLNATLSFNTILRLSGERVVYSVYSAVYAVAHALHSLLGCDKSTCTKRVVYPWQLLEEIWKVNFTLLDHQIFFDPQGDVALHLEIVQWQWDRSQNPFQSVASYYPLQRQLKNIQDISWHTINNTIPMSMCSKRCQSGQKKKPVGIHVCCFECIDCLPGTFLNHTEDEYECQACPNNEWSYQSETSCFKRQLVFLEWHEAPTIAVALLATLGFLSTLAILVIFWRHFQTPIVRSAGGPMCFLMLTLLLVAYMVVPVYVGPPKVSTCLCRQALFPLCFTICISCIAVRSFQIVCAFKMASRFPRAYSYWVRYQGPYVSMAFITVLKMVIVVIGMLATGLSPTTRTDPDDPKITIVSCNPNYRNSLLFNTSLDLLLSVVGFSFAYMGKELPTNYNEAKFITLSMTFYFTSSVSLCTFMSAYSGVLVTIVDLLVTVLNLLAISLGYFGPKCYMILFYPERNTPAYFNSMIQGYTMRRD
T1 sequence (Q7RTX0 21-852): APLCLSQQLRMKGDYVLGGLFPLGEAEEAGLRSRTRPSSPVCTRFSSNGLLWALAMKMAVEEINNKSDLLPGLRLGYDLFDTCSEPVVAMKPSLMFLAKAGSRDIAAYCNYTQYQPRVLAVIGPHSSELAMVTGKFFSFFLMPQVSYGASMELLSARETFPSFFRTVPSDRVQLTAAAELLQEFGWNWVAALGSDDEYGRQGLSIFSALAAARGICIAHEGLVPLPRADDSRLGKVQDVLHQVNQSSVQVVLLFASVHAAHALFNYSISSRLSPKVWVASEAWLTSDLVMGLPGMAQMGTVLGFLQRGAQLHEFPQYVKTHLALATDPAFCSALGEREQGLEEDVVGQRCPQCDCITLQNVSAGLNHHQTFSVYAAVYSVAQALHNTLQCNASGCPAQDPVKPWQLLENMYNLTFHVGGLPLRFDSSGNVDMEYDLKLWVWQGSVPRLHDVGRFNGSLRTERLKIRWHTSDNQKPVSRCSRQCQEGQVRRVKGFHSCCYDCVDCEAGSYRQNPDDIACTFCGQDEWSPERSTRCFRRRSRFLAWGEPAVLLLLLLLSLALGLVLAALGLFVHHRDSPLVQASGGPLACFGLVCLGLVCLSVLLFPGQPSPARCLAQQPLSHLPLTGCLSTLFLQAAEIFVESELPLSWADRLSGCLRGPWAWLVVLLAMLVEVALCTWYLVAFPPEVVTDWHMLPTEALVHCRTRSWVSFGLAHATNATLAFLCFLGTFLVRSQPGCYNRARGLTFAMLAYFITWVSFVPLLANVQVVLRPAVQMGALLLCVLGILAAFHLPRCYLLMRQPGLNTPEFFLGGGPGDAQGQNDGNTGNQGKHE
Assay: Calcium mobilisation assay, TAS1R2 variant A574T with TAS1R3-WT
Type: cell-based
Settings: for Max ΔF/F0: maximal signal amplitude
Excerpt: The coding sequences for TAS1R2 and TAS1R3 were commercially synthesised, and the human codon was optimised for expression in human cells. The coding sequences of human TAS1R2 and TAS1R3 were subcloned and inserted into the mammalian expression vectors pcDNA6/myc-HisA and pcDNA4/myc-HisA (Invitrogen; Thermo Fisher Scientific; Illkirch, France) between the EcoRI and NotI restriction sites, generating the plasmids pcDNA6-TAS1R2 and pcDNA4-TAS1R3, respectively. To increase protein expression in mammalian cells, an upstream start codon was used, which was a sequence called MAX, corresponding to the QBI SP163 element also described in pcDNA4-HisMax (Invitrogen; Thermo Fisher Scientific; Illkirch, France). To measure the expression level of the receptor by immunohistochemistry, we used the FLAG sequence ([…]) in the C-terminal position, which encodes the FLAG tag epitope. SNP variants of TAS1R2 and TAS1R3 were constructed based on […], respectively, using site-directed mutagenesis (Genewiz; Leipzig, Germany).
The HEK293T cells were kindly provided by Jay P. Slack (Givaudan Flavors Corporation; Cincinnati, OH, USA). HEK293T cells stably transfected with Gα16gust44 [43, 67] were seeded in poly-D-lysine-coated clear-bottom black 96-well plates (0.35 × 10^5 cells/well) in high-glucose DMEM supplemented with 2 mM GlutaMAX, 10% dialysed foetal bovine serum with penicillin/streptomycin and G418 (400 μg/mL) at 37 °C and 6.3% CO2 in a humidified atmosphere as previously reported. […] As a negative control, HEK293T cells were mock-transfected with the empty expression vector. After a further 24 h of incubation, the HEK293T cells were washed with C1 buffer (130 mM NaCl, 5 mM KCl, 10 mM HEPES pH 7.4 and 2 mM CaCl2). The 96-well plates containing the cells were then stimulated with sweet-tasting compounds. […] Different concentration ranges were tested depending on the sweet compound injected. The Ca^2+ changes were expressed as fractional changes in fluorescent light intensity: ΔF/F = (F − F0)/F0, where F was the fluorescent light intensity at each point, and F0 was the value of emitted fluorescent light prior to stimulus application. To calculate dose–response relationships, the changes in fluorescence upon stimulus application were averaged, mock-subtracted and baseline-corrected. The dose–response data obtained were adjusted using a 4-parameter logistic equation. The half-maximal effective concentrations (EC50 values) and maximal signal amplitudes were calculated using SigmaPlot software (version 15.0) (Systat Software; San Jose, CA, USA).
For in vitro calcium mobilisation assay performed on hTAS1R2-SNPs, hTAS1R3-SNPs and mTAS1R3-I60T, 6 to 7 concentrations were tested for each sweet compound, plus buffer alone. All concentration–receptor combinations were measured in duplicate, and each experiment was repeated at least 4 times (8 wells/concentration). Results were expressed for each concentration as ΔF/F mean ± SEM and represented as dose–response curves.

| Molecule | EC50 [µM] | R1 = Variant EC50/WT EC50 | Max ΔF/F0 |
| --- | --- | --- | --- |
| OC[C@H]1O[C@H](O[C@]2(CCl)O[C@H](CCl)[C@@H](O)[C@@H]2O)[C@H](O)[C@@H](O)[C@H]1Cl [Sucralose] | 81 ± 2 | 0.9 | 0.63 ± 0.01 |
| O=S(=O)(O)NC1CCCCC1 [Cyclamate, cyclamate] | 1780 ± 49 |  |  |
| C=C(C)[C@@H]1CC=C(/C=N/O)CC1 [Perillartine, perillartine] | 19.2 ± 0.9 | 1.1 | 1.39 ± 0.02 |
| C=C1C[C@@]23CC[C@H]4[C@@](C)(CCC[C@@]4(C)C(=O)O[C@@H]4O[C@H](CO)[C@@H](O)[C@H](O[C@@H]5O[C@H](CO)[C@@H](O)[C@H](O)[C@H]5O)[C@H]4O[C@@H]4O[C@H](CO)[C@@H](O)[C@H](O)[C@H]4O)[C@@H]2CC[C@]1(O[C@@H]1O[C@H](CO)[C@@H](O)[C@H](O[C@@H]2O[C@H](CO)[C@@H](O)[C@H](O)[C@H]2O)[C@H]1O[C@@H]1O[C@H](CO)[C@@H](O)[C@H](O)[C@H]1O)C3 [Rebaudioside M, rebaudioside M] | 16.3 ± 0.5 | 1.0 | 1.08 ± 0.01 |
| COc1ccc(CCC(=O)c2c(O)cc(O[C@@H]3O[C@H](CO)[C@@H](O)[C@H](O)[C@H]3O[C@@H]3O[C@@H](C)[C@H](O)[C@@H](O)[C@H]3O)cc2O)cc1O [NHDC, neohesperidin dihydrochalcone] | 73.4 ± 8.4 | 1.0 | 0.81 ± 0.03 |
| thaumatin |  | 1.9 | 1.37 ± 0.02 |
| CC1=CC(=O)NS(=O)(=O)O1 [Acesulfame K, acesulfame K] | 658 ± 65 | 0.9 | 0.34 ± 0.02 |
| brazzein (QDKCKKVYENYPVSKCQLANQCNYDCKLDKHARSGECFYDEKRNLQCICDYCEY; ends and bridges not checked; cysteine pairing not given here; UniProt P56552 1-54, looked up) [sweet-tasting protein obtained by recombinant production using the yeast Pichia pastoris] |  | 1.2 | 1.14 ± 0.01 |
| C[C@H](CC[C@@H](O[C@@H]1O[C@H](CO[C@@H]2O[C@H](CO)[C@@H](O)[C@H](O)[C@H]2O)[C@@H](O)[C@H](O)[C@H]1O[C@@H]1O[C@H](CO)[C@@H](O)[C@H](O)[C@H]1O)C(C)(C)O)[C@H]1CC[C@@]2(C)[C@@H]3CC=C4[C@@H](CC[C@H](O[C@@H]5O[C@H](CO[C@@H]6O[C@H](CO)[C@@H](O)[C@H](O)[C@H]6O)[C@@H](O)[C@H](O)[C@H]5O)C4(C)C)[C@]3(C)[C@H](O)C[C@]12C [Mogroside V, mogroside V] | 16.7 ± 3.1 | 1.0 | 1.25 ± 0.08 |
| COC(=O)[C@H](Cc1ccccc1)NC(=O)[C@H](CC(=O)O)NCCC(C)(C)C [Neotame] | 0.73 ± 0.03 | 0.9 | 0.60 ± 0.01 |
| B1 | 14.1 ± 0.3 |  |  |
